Values quoted from earlier work as cited in US20060058589A1, “Animal model to evaluate visceral pain perception” (priority 2002, published 2006).

Test system: visceromotor response to duodenal distention
Details: conscious, freely moving rats; dose-dependent manner

## CN1CC[C@]23c4c5ccc(O)c4O[C@H]2[C@@H](O)C=C[C@H]3[C@H]1C5 [morphine]
  visceromotor response to duodenal distention: inhibited
